Article PMC11567786 (ACS chemical biology, 2024)

What was measured:
Sm-EboD [1] = target: T1, Sm-EboD (Sporocytophaga myxococcoides, UniProt P0DY70); assay: large-scale reaction, HR-MS, 1D and 2D NMR of isolated product; assay type: biochemical; details: NAD+, Co2+; Tris-HCl pH 7.5; 37°C
T1 sequence (P0DY70 1-387): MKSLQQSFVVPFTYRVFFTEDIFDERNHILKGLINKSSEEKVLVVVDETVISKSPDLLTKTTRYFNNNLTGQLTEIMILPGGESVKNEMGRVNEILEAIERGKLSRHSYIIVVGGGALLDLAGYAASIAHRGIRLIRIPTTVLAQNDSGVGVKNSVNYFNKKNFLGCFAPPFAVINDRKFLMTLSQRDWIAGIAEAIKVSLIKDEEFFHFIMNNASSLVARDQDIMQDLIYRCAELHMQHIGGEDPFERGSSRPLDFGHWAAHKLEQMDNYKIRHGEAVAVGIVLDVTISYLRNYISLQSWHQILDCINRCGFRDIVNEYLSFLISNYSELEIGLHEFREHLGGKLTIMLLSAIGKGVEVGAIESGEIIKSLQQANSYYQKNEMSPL

Sm-EboD [2] = target: T1, Sm-EboD; assay: TLC, product formation; assay type: biochemical; details: NAD+, Co2+; Tris-HCl pH 7.5; 37°C

| SMILES | large-scale reaction, HR-MS, 1D and 2D NMR of isolated product (Sm-EboD [1]) | TLC, product formation (Sm-EboD [2]) |
| --- | --- | --- |
| O=C1C[C@@H](O)[C@@H](O)[C@@H](O)[C@@H]1O [DEI, 2-deoxy-4-epi-scyllo-inosose] | revealed the identity of the compound to be 2-deoxy-4-epi-scyllo-inosose (DEI) | – |
| O=P(O)(O)OC[C@H]1OC(O)[C@@H](O)[C@@H](O)[C@@H]1O (some centres unmarked) [Man6P] | – | gave the same product with an even better conversion rate |
